From patent publication US20200254065A1, “LONG-ACTING GLP-2 ANALOGS” (OPKO Biologics Ltd., priority 2019, published 2020) come the findings set out here.

Series [1] in a line: Stability of GLP-2 analogues on incubation at 37° C. (appearance, O.D. reading, RP-HPLC). The series is classed as physicochemical. Particulars: following 48 h incubation at 37° C.; for Stability via RP-HPLC main peak: change of main peak. As for the experimental part:
The GLP-2 analogues were tested for stability via appearance, O.D. reading (A.280, and A.325) and RP-HPLC (purity, and peak area) following t=0, 1 day, and 48 h incubation at 37° C.

The target of series [2] is T1, GLP-2 receptor (Homo sapiens, UniProt O95838).
T1 sequence (O95838 1-553): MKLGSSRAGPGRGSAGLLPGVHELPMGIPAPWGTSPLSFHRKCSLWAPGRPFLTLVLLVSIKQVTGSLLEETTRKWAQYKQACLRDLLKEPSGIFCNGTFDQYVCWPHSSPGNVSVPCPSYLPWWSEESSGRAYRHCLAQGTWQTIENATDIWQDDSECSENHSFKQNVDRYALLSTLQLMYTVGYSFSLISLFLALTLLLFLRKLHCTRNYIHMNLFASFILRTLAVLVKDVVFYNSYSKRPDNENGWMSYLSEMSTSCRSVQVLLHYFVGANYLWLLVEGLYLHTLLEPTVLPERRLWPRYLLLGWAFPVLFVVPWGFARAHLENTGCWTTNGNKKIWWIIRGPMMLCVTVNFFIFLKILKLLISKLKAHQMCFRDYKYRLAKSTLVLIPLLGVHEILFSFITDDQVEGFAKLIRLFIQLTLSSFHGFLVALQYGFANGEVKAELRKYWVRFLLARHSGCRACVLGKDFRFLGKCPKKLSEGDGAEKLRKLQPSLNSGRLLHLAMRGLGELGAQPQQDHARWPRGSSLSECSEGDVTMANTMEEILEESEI
Kind of series: GLP-2 receptor Cell Based Assay (CBA).
Description: Evaluation of in vitro binding affinity of the different peptides was assessed by using Cell Based Assay (CBA) in the presence of escalating doses of the different peptides.

Series [3] in a line: PK after single IV injection in rats. The format is in vivo. To be noted: rat, in vivo, iv, 2 mg/kg. An excerpt: Blood samples were collected at 0.5, 2, 4, 8, 12, 24, 36, 48, 72, 96- and 120-hours post-dose administration.
Series [4] is described as follows: PK after single SC injection in rats (LC-MS/MS). To be noted: rat, in vivo, 2 mg/kg. As for the experimental part: To support the pharmacodynamic effects of V4 and Cys-FMS-V4 as detailed in Example 9, a pharmacokinetic analysis was also conducted. In this study (Study reference 15204), all animals were injected SC on Day 1 with 2 mg/kg peptide content of V4, Cys-FMS-V4 and Apraglutide. Blood samples were collected at 2, 8, 12, 24, 36, 48, 72, 96, 120 hours, and Days 7, 8, 9, 10, 11, 12, 13 and 14 post-dose administration and subsequently taken to LC-MS/MS analysis to determine plasma levels of each compound. For Cys-FMS-V4, a 2-analyte method was applied to determine the plasma concentrations of both the full conjugate and the V4 that was hydrolyzed from it (V4 hydrolyzed). Plasma concentrations (μM), as measured by using the LC-MS/MS method, of V4 peptide, Cys-FMS-V4, hydrolyzed V4, and Apraglutide are presented in FIG. 17.

The target of series [5] is T2, GLP-2 receptor (UniProt O95838 1-553, limits assumed).
T2 sequence (looked up): T1 sequence (O95838 1-553)
The series is described as follows: cell-based or functional assay.

Where [6] appears, read: Table 8, average of 3 independent CBA.

By EC50 is commonly meant the concentration needed to bring the measured effect to its halfway point. Higher therefore signals a less potent agent.

Square brackets hold non-standard residues; d marks the D form. Ends that are not written are not given here. Peptide text beside a SMILES is read from it. Nle = CCCC[C@H](N)C(=O)O

`CCCC[C@H](NC(=O)[C@H](CCC(=O)O)NC(=O)[C@H](CC(=O)O)NC(=O)[C@H](CO)NC(=O)[C@H](Cc1ccccc1)NC(=O)[C@H](CO)NC(=O)CNC(=O)[C@H](CCC(=O)O)NC(=O)CNC(=O)[C@@H](N)Cc1c[nH]cn1)C(=O)N[C@H](Cc1ccccc1)C(=O)N[C@H](C(=O)N[C@H](C(=O)N[C@@H](CC(C)C)C(=O)N[C@@H](CC(=O)O)C(=O)N[C@@H](CC(C)C)C(=O)N[C@@H](CC(C)C)C(=O)N[C@@H](C)C(=O)N[C@@H](C)C(=O)N[C@@H](CCCNC(=N)N)C(=O)N[C@@H](CC(=O)O)C(=O)N[C@@H](Cc1ccccc1)C(=O)N[C@H](C(=O)N[C@@H](CC(N)=O)C(=O)N[C@@H](Cc1c[nH]c2ccccc12)C(=O)N[C@@H](CC(C)C)C(=O)N[C@H](C(=O)N[C@@H](CCC(N)=O)C(=O)N[C@H](C(=O)N[C@@H](CCCCN)C(=O)N[C@H](C(=O)N[C@H](C(=O)N[C@@H](CC(=O)O)C(N)=O)[C@@H](C)O)[C@@H](C)CC)[C@@H](C)O)[C@@H](C)CC)[C@@H](C)CC)[C@@H](C)CC)[C@@H](C)O` [Variant 9] (H-HGEGSFSDE[Nle][dF]TILDLLAARDFINWLIQTKITD-NH2): in series [1], the Solubility via appearance result is “V9: clear” and the “Stability via RP-HPLC main peak” value was “V9: −1.5%”.
In turn, “HGEGTFSSELATILDALAARDFIAWLIATKITDKKKKKK-NH2 [Variant 10, NH2-HG^2E^3GT^5FSS^8EL^10A^11TILDA^16LAAR20DFIA^24WLIA^28TKITDK^34K^35K^36K^37K^38K^39- NH2, reference compound]” had an EC50 at GLP-2 receptor [2] (EC50 (nM) Average, average of 3 independent CBA, different GLP-2R Assay Kit lot (Table 8)) of 5.4 nM.
Take `CCCC[C@H](NC(=O)[C@H](CCC(=O)O)NC(=O)[C@H](CC(=O)O)NC(=O)[C@H](CO)NC(=O)[C@H](Cc1ccccc1)NC(=O)[C@H](CO)NC(=O)CNC(=O)[C@H](CCC(=O)O)NC(=O)CNC(=O)[C@@H](N)Cc1c[nH]cn1)C(=O)N[C@H](Cc1ccccc1)C(=O)N[C@H](C(=O)N[C@H](C(=O)N[C@@H](CC(C)C)C(=O)N[C@@H](CC(=O)O)C(=O)N[C@@H](CC(N)=O)C(=O)N[C@@H](CC(C)C)C(=O)N[C@@H](C)C(=O)N[C@@H](C)C(=O)N[C@@H](CCCNC(=N)N)C(=O)N[C@@H](CC(=O)O)C(=O)N[C@@H](Cc1ccccc1)C(=O)N[C@H](C(=O)N[C@@H](CC(N)=O)C(=O)N[C@@H](Cc1c[nH]c2ccccc12)C(=O)N[C@@H](CC(C)C)C(=O)N[C@H](C(=O)N[C@@H](CCC(N)=O)C(=O)N[C@H](C(=O)N[C@@H](CCCCN)C(=O)N[C@H](C(=O)N[C@H](C(=O)N[C@@H](CC(=O)O)C(N)=O)[C@@H](C)O)[C@@H](C)CC)[C@@H](C)O)[C@@H](C)CC)[C@@H](C)CC)[C@@H](C)CC)[C@@H](C)O` [Variant 2] (H-HGEGSFSDE[Nle][dF]TILDNLAARDFINWLIQTKITD-NH2): on GLP-2 receptor [2] (Table 7), the “EC50 Ratio to Teduglutide” value was 6.4. In series [1], the Solubility via appearance result is listed as “V2: opaque” and the “Stability via RP-HPLC main peak” value is on record as “V2: −30%”.
Take “H-HGEGTFSSELATILDALAARDFIAWLIATKITDKKKKKK-NH2 [Variant 10, NH2-HG^2E^3GT^5FSS^8EL^10A^11TILDA^16LAAR20DFIA^24WLIA^28TKITDK^34K^35K^36K^37K^38K^39- NH2, reference compound]”: on GLP-2 receptor [2] (setting [6]), the “EC50 Ratio to Teduglutide” value is 9.4 and the “EC50 Ratio to Variant 4” value is 5.3.
As for `CCCC[C@H](NC(=O)[C@H](CCC(=O)O)NC(=O)[C@H](CC(=O)O)NC(=O)[C@H](CO)NC(=O)[C@H](Cc1ccccc1)NC(=O)[C@H](CO)NC(=O)CNC(=O)[C@H](CCC(=O)O)NC(=O)CNC(=O)[C@@H](N)Cc1c[nH]cn1)C(=O)N[C@@H](CC(N)=O)C(=O)N[C@H](C(=O)N[C@H](C(=O)N[C@@H](CC(C)C)C(=O)N[C@@H](CC(=O)O)C(=O)N[C@@H](CC(C)C)C(=O)N[C@@H](CC(C)C)C(=O)N[C@@H](C)C(=O)N[C@@H](C)C(=O)N[C@@H](CCCNC(=N)N)C(=O)N[C@@H](CC(=O)O)C(=O)N[C@@H](Cc1ccccc1)C(=O)N[C@H](C(=O)N[C@@H](CC(N)=O)C(=O)N[C@@H](Cc1c[nH]c2ccccc12)C(=O)N[C@@H](CC(C)C)C(=O)N[C@H](C(=O)N[C@@H](CCC(N)=O)C(=O)N[C@H](C(=O)N[C@@H](CCCCN)C(=O)N[C@H](C(=O)N[C@H](C(=O)N[C@@H](CC(=O)O)C(N)=O)[C@@H](C)O)[C@@H](C)CC)[C@@H](C)O)[C@@H](C)CC)[C@@H](C)CC)[C@@H](C)CC)[C@@H](C)O` [V4 (hydrolyzed)] (H-HGEGSFSDE[Nle]NTILDLLAARDFINWLIQTKITD-NH2), in series [3], the Cl/F_obs is listed as 0.042 (μmol/kg)/(μmol/L)/h and the Vz/F_obs is 0.487 (μmol/kg)/(μmol/L). Moreover, in series [4], the Cl/F obs is given as 0.034 (μmol/kg)/(μmol/L)/h and the Vz/F_obs is given as 2.19 (μmol/kg)/(μmol/L).

B1: GLP-2 Variant #6 (peptide)
peptide: H-HGEGSFSDE[Nle]NTILDLLAARDFINWLIQTKITD-OH
SMILES: CCCC[C@H](NC(=O)[C@H](CCC(=O)O)NC(=O)[C@H](CC(=O)O)NC(=O)[C@H](CO)NC(=O)[C@H](Cc1ccccc1)NC(=O)[C@H](CO)NC(=O)CNC(=O)[C@H](CCC(=O)O)NC(=O)CNC(=O)[C@@H](N)Cc1c[nH]cn1)C(=O)N[C@@H](CC(N)=O)C(=O)N[C@H](C(=O)N[C@H](C(=O)N[C@@H](CC(C)C)C(=O)N[C@@H](CC(=O)O)C(=O)N[C@@H](CC(C)C)C(=O)N[C@@H](CC(C)C)C(=O)N[C@@H](C)C(=O)N[C@@H](C)C(=O)N[C@@H](CCCNC(=N)N)C(=O)N[C@@H](CC(=O)O)C(=O)N[C@@H](Cc1ccccc1)C(=O)N[C@H](C(=O)N[C@@H](CC(N)=O)C(=O)N[C@@H](Cc1c[nH]c2ccccc12)C(=O)N[C@@H](CC(C)C)C(=O)N[C@H](C(=O)N[C@@H](CCC(N)=O)C(=O)N[C@H](C(=O)N[C@@H](CCCCN)C(=O)N[C@H](C(=O)N[C@H](C(=O)N[C@@H](CC(=O)O)C(=O)O)[C@@H](C)O)[C@@H](C)CC)[C@@H](C)O)[C@@H](C)CC)[C@@H](C)CC)[C@@H](C)CC)[C@@H](C)O
As for B1, in the series with GLP-2 receptor [5], the “EC50 Ratio to Teduglutide, CBA” value was 3.8 fold and the “EC50 [nM], Cell Based Assay (CBA), cells overexpressing the GLP-2 receptor” value came out at 21.7 nM.

B2: GLP-2 Variant #2 (peptide)
peptide: H-HGEGSFSDE[Nle][dF]TILDNLAARDFINWLIQTKITD-NH2
SMILES: CCCC[C@H](NC(=O)[C@H](CCC(=O)O)NC(=O)[C@H](CC(=O)O)NC(=O)[C@H](CO)NC(=O)[C@H](Cc1ccccc1)NC(=O)[C@H](CO)NC(=O)CNC(=O)[C@H](CCC(=O)O)NC(=O)CNC(=O)[C@@H](N)Cc1c[nH]cn1)C(=O)N[C@H](Cc1ccccc1)C(=O)N[C@H](C(=O)N[C@H](C(=O)N[C@@H](CC(C)C)C(=O)N[C@@H](CC(=O)O)C(=O)N[C@@H](CC(N)=O)C(=O)N[C@@H](CC(C)C)C(=O)N[C@@H](C)C(=O)N[C@@H](C)C(=O)N[C@@H](CCCNC(=N)N)C(=O)N[C@@H](CC(=O)O)C(=O)N[C@@H](Cc1ccccc1)C(=O)N[C@H](C(=O)N[C@@H](CC(N)=O)C(=O)N[C@@H](Cc1c[nH]c2ccccc12)C(=O)N[C@@H](CC(C)C)C(=O)N[C@H](C(=O)N[C@@H](CCC(N)=O)C(=O)N[C@H](C(=O)N[C@@H](CCCCN)C(=O)N[C@H](C(=O)N[C@H](C(=O)N[C@@H](CC(=O)O)C(N)=O)[C@@H](C)O)[C@@H](C)CC)[C@@H](C)O)[C@@H](C)CC)[C@@H](C)CC)[C@@H](C)CC)[C@@H](C)O
With B2, in the series with GLP-2 receptor [5], the “EC50 Ratio to Teduglutide, CBA” value worked out at 6.4 fold and the “EC50 [nM], Cell Based Assay (CBA), cells overexpressing the GLP-2 receptor” value stood at 36.1 nM.
